Patent US20060078919A1, “Diagnostic test kit and methods of diagnosis and treatment of helicobacter SPP. associated infections” (Harry C. Gurney Janice Gurney, priority 2004, published 2006)

System: Helicobacter infection
Assay: Vac A treatment of patients with pemphygus, allergic dermatitis and atopy
Format: in vivo
Conditions: more chronic and persistent cases, 25 to 75 mg bid
Procedure: Vacuolating Toxin A (recombinant Vac A; Austral Biologicals, catalog number HPA-5010-4) at 0.01 mg/ml in bacteriostatic water and 0.2 ml was injected subcutaneously 2-6 times per day at intervals of at least one hour to patients with various conditions associated with evidence of Helicobacter infection.

For `CN(C)CCOC(c1ccccc1)c1ccccc1` [diphenhydramine], the “use as supplement to Vac A therapy” value was “used successfully”.
